How the values were obtained:
[1] = test system: human colon cancer LoVo cell; test: MTT proliferation assay, LoVo; type: cell-based; conditions: Homo sapiens, LoVo, 96 h, MTT, 4 days; read-out: IC50 (nM), proliferation of LoVo cell
Description: The cells were seeded into 96-well cell culture plate with a density of 2000/4000 cells per well and incubated overnight in a 5% CO2 incubator at 37° C. […] 5 μL diluent of each concentration was added to 120 μL of medium (25 times diluted) and mixed by shaking. The overnight cell plates were taken and the culture medium was removed, 195 μL of fresh medium was added to each well, and 5 μL of diluted medium containing the corresponding concentration of the test compound was added respectively (the final concentration of DMSO is 1%), and the culture plate was then placed in a 5% CO2 incubator at 37° C. for 4 days. After removing the original solution, […] of fresh serum-free DMEM medium containing MTT (0.5 mg/mL) was added to each well, the culture was continued. […] Cell viability (%)=(ODcompound−ODbackground)/ODDMSO−ODbackground)×100. GraphPad Prism 6.0 was used to analyze the data. The inhibitory activity of compounds on cell proliferation was plotted based on cell viability and the logarithm of compound concentration. The IC5.0 value was fitted by a sigmoidal dose response curve equation Y=100/(1+10^(LogC-LogIC50)), wherein C was the concentration of compound.

[2] = test system: human non-small cell lung cancer A549 cell; test: MTT proliferation assay of Example 1, A549; type: cell-based; conditions: A549, 96 h, 4 days
Description: (§1) The cells were digested by trypsinase and centrifuged at 800 rpm for 5 minutes, the supernatant was discarded, and the residual was resuspended with fresh medium (1640 medium+10% FRS) and counted. The cells were seeded into 96well cell culture plate with a density of 2000/4000 cells per well and incubated overnight in a 5% CO2 incubator at 37° C. The stock solutions of the test substances were serially diluted to 8 concentrations by DMSO at the ratios of 1:3 and 1:10, respectively. 5 μL diluent of each concentration was added to […] (25 times diluted) and mixed by shaking. The overnight cell plates were taken and the culture medium was removed, 195 μL of fresh medium was added to each well, and 5 μL of diluted medium containing the corresponding concentration of the test compound was added respectively (the final concentration of DMSO is 1%), and the culture plate was then placed in a 5% CO2 incubator at 37° C for 4 days. After removing the original solution, […] of fresh serum-free DMEM medium containing MTT (0.5 mg/mL) was added to each well, the culture was continued. After 4 hours, the original solution was removed, 100 μL, of DMSO was added to each well, the 96-well plates were shaken for 10 minutes in the dark and placed in a multi-function reader to read the absorbance at the wavelength of 552/690 nm. […]

[3] = test system: human ovarian cancer OVCAR-3 cell; test: MTT proliferation assay of Example 1, OVCAR-3; type: cell-based; conditions: OVCAR-3, 96 h, 4 days
Description: as §1

[4] = test system: human breast cancer HCC1806 cell; test: MTT proliferation assay of Example 1, HCC1806; type: cell-based; conditions: HCC1806, 96 h, 4 days
Description: as §1

[5] = test system: HCT116 (human colorectal adenocarcinoma cell); test: MTT proliferation assay of Example 1, HCT116; type: cell-based; conditions: HCT-116, 96 h, 4 days
Description: as §1

[6] = target: T1, ATR/ATRIP enzyme (Homo sapiens, UniProt Q13535); test: ATR enzyme activity experiment (HTRF); type: biochemical; conditions: p53 substrate, 30 min room temperature, read-out: IC50 (nM), inhibitory effect on ATR kinase activity
T1 construct: purchased Eurofins 14-953
T1 sequence (Q13535 whole entry): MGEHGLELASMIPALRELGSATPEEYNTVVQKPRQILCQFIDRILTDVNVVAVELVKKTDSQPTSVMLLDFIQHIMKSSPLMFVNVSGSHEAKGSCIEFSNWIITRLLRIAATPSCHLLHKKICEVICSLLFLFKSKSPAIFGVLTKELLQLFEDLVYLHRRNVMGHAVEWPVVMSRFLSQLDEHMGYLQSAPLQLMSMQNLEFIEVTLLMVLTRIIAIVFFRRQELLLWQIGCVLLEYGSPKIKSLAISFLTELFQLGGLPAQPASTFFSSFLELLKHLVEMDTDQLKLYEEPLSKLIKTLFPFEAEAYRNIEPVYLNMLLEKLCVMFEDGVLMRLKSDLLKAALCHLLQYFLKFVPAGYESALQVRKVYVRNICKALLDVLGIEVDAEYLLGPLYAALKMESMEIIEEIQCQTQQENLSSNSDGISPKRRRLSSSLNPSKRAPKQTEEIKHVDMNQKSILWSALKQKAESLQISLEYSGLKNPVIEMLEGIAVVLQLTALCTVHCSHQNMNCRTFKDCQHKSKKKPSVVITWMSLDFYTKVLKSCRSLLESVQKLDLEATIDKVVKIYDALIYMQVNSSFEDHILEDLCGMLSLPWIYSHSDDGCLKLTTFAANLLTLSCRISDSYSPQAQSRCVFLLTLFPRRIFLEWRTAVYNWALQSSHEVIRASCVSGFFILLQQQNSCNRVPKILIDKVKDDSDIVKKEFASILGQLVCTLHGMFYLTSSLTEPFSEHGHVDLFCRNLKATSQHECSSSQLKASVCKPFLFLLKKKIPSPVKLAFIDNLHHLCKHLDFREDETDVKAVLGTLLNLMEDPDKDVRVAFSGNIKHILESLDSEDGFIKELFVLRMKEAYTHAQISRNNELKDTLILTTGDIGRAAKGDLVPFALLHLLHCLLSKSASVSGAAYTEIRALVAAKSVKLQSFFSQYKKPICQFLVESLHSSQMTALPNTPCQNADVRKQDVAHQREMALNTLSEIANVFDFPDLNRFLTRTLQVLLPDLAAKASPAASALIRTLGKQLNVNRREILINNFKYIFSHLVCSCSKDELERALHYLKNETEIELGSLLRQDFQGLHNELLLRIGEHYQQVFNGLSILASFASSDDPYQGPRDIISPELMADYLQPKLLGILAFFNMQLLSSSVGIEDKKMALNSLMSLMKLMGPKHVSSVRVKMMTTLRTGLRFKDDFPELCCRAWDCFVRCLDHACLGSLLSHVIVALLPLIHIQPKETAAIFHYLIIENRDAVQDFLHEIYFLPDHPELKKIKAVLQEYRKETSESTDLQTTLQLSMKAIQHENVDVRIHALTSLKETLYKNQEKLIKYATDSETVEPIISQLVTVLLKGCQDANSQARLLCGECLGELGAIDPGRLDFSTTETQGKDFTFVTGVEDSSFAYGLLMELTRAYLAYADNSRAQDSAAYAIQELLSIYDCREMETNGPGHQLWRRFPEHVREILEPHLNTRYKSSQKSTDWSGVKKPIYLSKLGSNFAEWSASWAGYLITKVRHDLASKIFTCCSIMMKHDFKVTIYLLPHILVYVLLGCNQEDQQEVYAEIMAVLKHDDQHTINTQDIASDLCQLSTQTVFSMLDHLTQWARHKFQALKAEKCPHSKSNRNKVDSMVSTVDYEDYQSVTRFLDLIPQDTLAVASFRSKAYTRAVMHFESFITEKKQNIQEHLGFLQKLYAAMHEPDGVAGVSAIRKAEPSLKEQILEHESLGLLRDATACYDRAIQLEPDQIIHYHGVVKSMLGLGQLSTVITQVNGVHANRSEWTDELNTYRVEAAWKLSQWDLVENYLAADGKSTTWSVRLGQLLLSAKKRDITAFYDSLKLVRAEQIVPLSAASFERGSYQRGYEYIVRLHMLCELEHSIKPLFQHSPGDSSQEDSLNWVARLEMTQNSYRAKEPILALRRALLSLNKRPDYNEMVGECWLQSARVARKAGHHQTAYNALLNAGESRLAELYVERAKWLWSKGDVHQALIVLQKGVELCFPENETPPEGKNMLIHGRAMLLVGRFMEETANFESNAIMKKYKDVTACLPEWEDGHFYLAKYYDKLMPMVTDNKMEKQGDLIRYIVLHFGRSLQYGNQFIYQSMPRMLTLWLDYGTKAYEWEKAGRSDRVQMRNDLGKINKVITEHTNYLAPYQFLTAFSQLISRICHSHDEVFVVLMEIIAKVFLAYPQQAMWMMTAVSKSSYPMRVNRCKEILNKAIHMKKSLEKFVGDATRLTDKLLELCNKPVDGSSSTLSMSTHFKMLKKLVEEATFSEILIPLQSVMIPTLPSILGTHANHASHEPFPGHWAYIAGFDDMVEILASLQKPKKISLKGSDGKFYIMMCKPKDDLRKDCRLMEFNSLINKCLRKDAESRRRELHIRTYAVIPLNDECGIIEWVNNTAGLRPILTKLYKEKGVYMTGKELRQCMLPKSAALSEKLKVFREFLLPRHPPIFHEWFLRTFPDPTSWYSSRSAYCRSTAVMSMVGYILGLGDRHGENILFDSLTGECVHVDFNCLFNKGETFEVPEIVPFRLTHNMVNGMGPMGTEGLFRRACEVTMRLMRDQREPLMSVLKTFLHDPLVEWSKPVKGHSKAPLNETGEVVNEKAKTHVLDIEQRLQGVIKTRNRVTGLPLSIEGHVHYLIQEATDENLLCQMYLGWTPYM
T1 sequence (Q8WXE1 whole entry partner): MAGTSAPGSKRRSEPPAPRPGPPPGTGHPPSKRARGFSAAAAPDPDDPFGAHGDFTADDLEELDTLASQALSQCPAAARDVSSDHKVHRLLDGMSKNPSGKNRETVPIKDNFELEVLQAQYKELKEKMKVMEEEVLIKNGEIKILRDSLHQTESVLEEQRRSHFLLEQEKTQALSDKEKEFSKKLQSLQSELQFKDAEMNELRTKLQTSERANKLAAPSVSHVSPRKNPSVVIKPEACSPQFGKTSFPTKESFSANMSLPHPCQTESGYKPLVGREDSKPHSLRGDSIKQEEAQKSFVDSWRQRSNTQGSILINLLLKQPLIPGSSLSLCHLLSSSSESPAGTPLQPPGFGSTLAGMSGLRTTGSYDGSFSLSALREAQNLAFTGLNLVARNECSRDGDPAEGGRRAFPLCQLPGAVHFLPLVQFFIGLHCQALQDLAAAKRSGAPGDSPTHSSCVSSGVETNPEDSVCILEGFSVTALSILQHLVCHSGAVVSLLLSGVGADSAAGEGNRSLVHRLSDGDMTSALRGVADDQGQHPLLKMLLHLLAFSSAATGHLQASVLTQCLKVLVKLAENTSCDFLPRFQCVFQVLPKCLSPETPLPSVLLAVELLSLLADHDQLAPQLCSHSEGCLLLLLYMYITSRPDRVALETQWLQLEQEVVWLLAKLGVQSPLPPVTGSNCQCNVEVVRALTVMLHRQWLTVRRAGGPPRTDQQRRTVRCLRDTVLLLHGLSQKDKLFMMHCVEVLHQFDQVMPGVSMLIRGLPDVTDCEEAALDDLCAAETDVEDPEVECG
Description: The mixture was centrifuged at 1000 rpm for 1 minute, and reacted at room temperature protected from light for 30 minutes. Then 5 μL of EDTA stop solution (250 mM) was added to stop the reaction.

[7] = Pharmacokinetics following single oral administration to mice; type: in vivo; conditions: mouse, CD-1 (ICR) mice, gavage 10 mg/kg, 0.5% methylcellulose/water suspension, plasma
Description: The compound of the present invention was formulated into a 0.5% methylcellulose/water uniform suspension, and was administered to CD-1 (ICR) mice by gavage at 10 mg/kg. Plasma samples were collected at 8 time points of 0.250, 0.500, 1.00, 2.00, 4.00, 6.00, 8.00 and 24.0 hours post-dose. Concentrations of the compound were determined by LC-MS/MS method.

[8] = test system: human large cell lung cancer NCI-H460 cell; test: MTT proliferation assay of Example 1, NCI-H460; type: cell-based; conditions: NCI-H460, 96 h, 4 days
Description: as §1

IC50 [1]: 26.7 nM
IC50 [2]: 157 nM
IC50 [3]: 182 nM
IC50 [4]: 38.8 nM
IC50 [5]: 22.5 nM
IC50 [6]: 1 nM
AUC(0-inf) [7]: 98.5 µg·h/mL
AUC(0-t) [7]: 98.5 µg·h/mL
Cmax [7]: 9.34 µg/mL
half-life [7]: 1.64 h
IC50 [8]: 19 nM
Structure (SMILES): Cc1nc(-c2ccn[nH]2)n2nc(N3CCOC[C@H]3C)cc(-c3ccnn3C)c12 [Example 1, (R)-3-methyl-4-(5-methyl-4-(1-methyl-1H-pyrazol-5-yl)-7-(1H-pyrazol-5-yl)imidazo[1,5-b]pyridazin-2-yl)morpholine]
